Results from US8853392B2, “Benzamide mGluR5 positive allosteric modulators and methods of making and using same” (Vanderbilt University, priority 2007, dated 2014).

Target: T1, rat mGluR5 (Rattus norvegicus, UniProt P31424)
T1 construct: expressed in transfected cells; host or cells: human embryonic kidney (HEK) cells
Experiment: potentiation of mGluR5 response to glutamate, Ca2+ fluorescence (FDSS) in HEK cells transfected with rat mGluR5
Assay type: cell-based
Conditions: EC50, Table 1, EC50 for potentiating the mGluR5 receptor; unit inferred
Description: Human embryonic kidney (HEK) cells transfected with rat mGluR5 were plated in clear bottom assay plates for assay in a Functional Drug Screening System (FDSS). The cells were loaded with a Ca^2+-sensitive fluorescent dye (e.g., Fluo-4), and the plates were washed and placed in the FDSS instrument. After establishment of a fluorescence baseline for twelve seconds, the compounds of the present invention were added to the cells, and the response in cells was measured. Five minutes later, an mGluR5 agonist (e.g., glutamate, 3,5-dihydroxyphenylglycine, or quisqualate) was added to the cells, and the response of the cells was measured. Potentiation of the agonist response of mGluR5 by the compounds in the present invention was observed as an increase in response to non-maximal concentrations of agonist (here, glutamate) in the presence of compound compared to the response to agonist in the absence of compound.
The above described assay operated in two modes. In the first mode, a range of concentrations of the present compounds were added to cells, followed by a single fixed concentration of agonist. If a compound acted as a potentiator, an EC50 value for potentiation and a maximum extent of potentiation by the compound at this concentration of agonist was determined by non-linear curve fitting. In the second mode, several fixed concentrations of the present compounds were added to various wells on a plate, followed by a range of concentrations of agonist for each concentration of present compound; the EC50 values for the agonist at each concentration of compound were determined by non-linear curve fitting. A decrease in the EC50 value of the agonist with increasing concentrations of the present compounds (a leftward shift of the agonist concentration-response curve) is an indication of the degree of mGluR5 potentiation at a given concentration of the present compound. An increase in the EC50 value of the agonist with increasing concentrations of the present compounds (a rightward shift of the agonist concentration-response curve) is an indication of the degree of mGluR5 antagonism at a given concentration of the present compound. The second mode also indicates whether the present compounds also affect the maximum response to mGluR5 to agonists.
Human embryonic kidney (HEK) cells transfected with rat mGluR5 were plated in clear-bottomed, poly-D-lysine-coated assay plates in glutamate-glutamine-free medium growth and incubated overnight at 37° C. in 5% CO2. The following day, cells were loaded with 2 μM calcium indicator dye, fluo-4 AM, for 1 h at 37° C. Dye was removed and replaced with assay buffer containing 1× Hanks balanced salt solution (Invitrogen, Carlsbad, Calif.), 20 mM HEPES, and 2.5 mM probenecid, pH 7.4. Cell plates were then loaded into the Functional Drug Screening System 6000 (FDSS 6000, Hamamatsu, Japan). After establishment of a fluorescence baseline for twelve seconds, the compounds of the present invention were added to the cells, and the response in cells was measured. Five minutes later, an mGluR5 agonist (e.g., glutamate, 3,5-dihydroxyphenylglycine, or quisqualate) was added to the cells, and the response of the cells was measured during a 1 minute incubation with agonists. Typically, the effect of test compounds of the present invention was on an EC20 concentration of glutamate was measured. All test compounds were dissolved and diluted in 100% DMSO and then serially diluted into assay buffer for a 2.5× stock in 0.25% DMSO; stock compounds were then added to the assay for a final DMSO concentration of 0.1%. Calcium fluorescence measures were recorded as fold over basal fluorescence; raw data was then normalized to the maximal response to agonist. Potentiation of the agonist response of mGluR5 by the compounds in the present invention was observed as an increase in response to non-maximal concentrations of agonist (here, glutamate) in the presence of compound compared to the response to agonist in the absence of compound. […]

T1 sequence (P31424 21-1203): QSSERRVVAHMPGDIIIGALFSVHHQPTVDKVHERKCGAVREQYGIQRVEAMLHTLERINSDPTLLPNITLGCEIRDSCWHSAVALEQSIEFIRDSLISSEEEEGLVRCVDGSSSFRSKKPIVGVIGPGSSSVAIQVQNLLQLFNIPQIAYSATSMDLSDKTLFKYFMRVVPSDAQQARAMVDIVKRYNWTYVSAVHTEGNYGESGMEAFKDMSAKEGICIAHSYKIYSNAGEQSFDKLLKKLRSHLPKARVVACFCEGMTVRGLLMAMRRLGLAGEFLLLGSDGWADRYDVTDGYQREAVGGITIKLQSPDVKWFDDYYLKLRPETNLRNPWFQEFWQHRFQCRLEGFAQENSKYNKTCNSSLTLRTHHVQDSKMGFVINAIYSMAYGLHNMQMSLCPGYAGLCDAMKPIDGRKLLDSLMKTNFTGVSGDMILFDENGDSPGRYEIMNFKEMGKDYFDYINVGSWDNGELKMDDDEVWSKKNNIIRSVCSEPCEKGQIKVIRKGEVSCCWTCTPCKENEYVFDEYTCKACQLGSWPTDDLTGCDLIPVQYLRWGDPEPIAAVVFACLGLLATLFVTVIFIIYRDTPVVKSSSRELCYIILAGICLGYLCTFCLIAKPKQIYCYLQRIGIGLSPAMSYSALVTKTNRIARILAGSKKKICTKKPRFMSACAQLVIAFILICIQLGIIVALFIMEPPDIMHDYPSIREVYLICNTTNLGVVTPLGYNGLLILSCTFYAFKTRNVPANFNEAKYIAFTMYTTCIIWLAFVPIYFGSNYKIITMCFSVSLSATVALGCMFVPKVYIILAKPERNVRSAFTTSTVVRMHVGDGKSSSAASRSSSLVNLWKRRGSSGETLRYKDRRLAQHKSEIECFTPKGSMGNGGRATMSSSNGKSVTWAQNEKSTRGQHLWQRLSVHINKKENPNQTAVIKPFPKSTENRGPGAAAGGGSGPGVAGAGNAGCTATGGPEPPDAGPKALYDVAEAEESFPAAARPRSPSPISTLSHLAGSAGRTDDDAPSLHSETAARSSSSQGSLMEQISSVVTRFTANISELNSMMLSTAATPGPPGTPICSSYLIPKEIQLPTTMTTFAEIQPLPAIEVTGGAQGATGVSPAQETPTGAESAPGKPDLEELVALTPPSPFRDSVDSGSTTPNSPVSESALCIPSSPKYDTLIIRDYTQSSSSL

SMILES	EC50
CC(=O)C1(c2ccccc2)CCN(C(=O)c2ccc(C#Cc3ccccc3)cc2)CC1 [1-(4-phenyl-1-(4-(phenylethynyl)benzoyl)piperidin-4-yl)ethanone]	1250 nM
N#CC1(c2ccccc2)CCN(C(=O)c2ccc(C#Cc3ccccc3)cc2)CC1 [4-phenyl-1-(4-(phenylethynyl)benzoyl)piperidine-4-carbonitrile]	1140 nM

Same assay, conditions: Table 1, EC50 for potentiating the mGluR5 receptor; unit inferred; read-out: EC50

SMILES	EC50
N#Cc1ccccc1N1CCN(C(=O)c2ccc(C#Cc3ccccc3)cc2)CC1	4200 nM
O=C(c1ccc(C#Cc2ccccc2)cc1)N1CCC(n2c(=O)[nH]c3ccccc32)CC1 [1-(1-(4-(phenylethynyl)benzoyl)piperidin-4-yl)-1H-benzo[d]imidazol-2(3H)-one]	1470 nM
COCCCNC(=O)c1ccc(-c2nc(-c3ccc(F)cc3)no2)cc1 [4-(3-(4-fluorophenyl)-1,2,4-oxadiazol-5-yl)-N-(3-methoxypropyl)benzamide]	1120 nM
CCCNC(=O)c1ccc(-c2nc(-c3ccc(F)cc3)no2)cc1 [4-(3-(4-fluorophenyl)-1,2,4-oxadiazol-5-yl)-N-propylbenzamide]	2030 nM
CCCNC(=O)c1ccc(-c2nc(-c3ccccc3)no2)cc1 [4-(3-phenyl-1,2,4-oxadiazol-5-yl)-N-propylbenzamide]	2270 nM
O=C(NCCN1CCCCC1)c1ccc(C#Cc2ccccc2)cc1 [4-(phenylethynyl)-N-(2-(piperidin-1-yl)ethyl)benzamide]	1790 nM
CCCNC(=O)c1ccc(C#Cc2ccccc2)cc1 [4-(phenylethynyl)-N-propylbenzamide]	14.7 nM
O=C(c1ccc(C#Cc2ccccc2)cc1)n1c(=O)n(C2CCNCC2)c2cc(Cl)ccc21 [5-chloro-1-(4-(phenylethynyl)benzoyl)-3-(piperidin-4-yl)-1H-benzo[d]imidazol-2(3H)-one]	3720 nM
CC1CN(C(=O)c2ccc(C#Cc3ccccc3)cc2)CC(C)O1 (stereo not drawn) [(2,6-dimethylmorpholino)(4-(phenylethynyl)phenyl)methanone]	88.9 nM
O=C(c1ccc(C#Cc2ccccc2)cc1)N1CCCC(O)C1 (stereo not drawn) [(3-hydroxypiperidin-1-yl)(4-(phenylethynyl)phenyl)methanone]	134 nM
O=C(c1ccc(C#Cc2ccccc2)cc1)N1CCN(c2ccccc2F)CC1 [(4-(2-fluorophenyl)piperazin-1-yl)(4-(phenylethynyl)phenyl)methanone]	5140 nM
COCCNC1CCN(C(=O)c2ccc(C#Cc3ccccc3)cc2)CC1 [(4-(2-methoxyethylamino)piperidin-1-yl)(4-(phenylethynyl)phenyl)methanone]	1190 nM
COc1ccccc1N1CCN(C(=O)c2ccc(C#Cc3ccccc3)cc2)CC1 [(4-(2-methoxyphenyl)piperazin-1-yl)(4-(phenylethynyl)phenyl)methanone]	2100 nM
O=C(c1ccc(C#Cc2ccccc2)cc1)N1CCC(NCCN2CCOCC2)CC1 [(4-(2-morpholinoethylamino)piperidin-1-yl)(4-(phenylethynyl)phenyl)methanone]	383 nM
O=C(c1ccc(-c2nc(-c3ccc(F)cc3)no2)cc1)N1CCN(c2ccncc2)CC1 [(4-(3-(4-fluorophenyl)-1,2,4-oxadiazol-5-yl)phenyl)(4-(pyridin-4-yl)piperazin-1-yl)methanone]	4210 nM
O=C(c1ccc(C#Cc2ccccc2)cc1)N1CCC(O)(c2ccc(Cl)cc2C(F)(F)F)CC1 [(4-(4-chloro-2-(trifluoromethyl)phenyl)-4-hydroxypiperidin-1-yl)(4-(phenylethynyl)phenyl)methanone]	477 nM
O=C(c1ccc(C#Cc2ccccc2)cc1)N1CCC(O)(c2ccc(Cl)cc2)CC1 [(4-(4-chlorophenyl)-4-hydroxypiperidin-1-yl)(4-(phenylethynyl)phenyl)methanone]	6460 nM
CN1CCN(C2CCN(C(=O)c3ccc(C#Cc4ccccc4)cc3)CC2)CC1 [(4-(4-methylpiperazin-1-yl)piperidin-1-yl)(4-(phenylethynyl)phenyl)methanone]	132 nM
O=C(c1ccc(C#Cc2ccccc2)cc1)N1CCC(N2CCC2)CC1 [(4-(azetidin-1-yl)piperidin-1-yl)(4-(phenylethynyl)phenyl)methanone]	1110 nM

SMILES	EC50
O=C(c1ccc(C#Cc2ccccc2)cc1)N1CCC(NC2CCC2)CC1 [(4-(cyclobutylamino)piperidin-1-yl)(4-(phenylethynyl)phenyl)methanone]	212 nM
O=C(c1ccc(C#Cc2ccccc2)cc1)N1CCC(NC2CCCCC2)CC1 [(4-(cyclohexylamino)piperidin-1-yl)(4-(phenylethynyl)phenyl)methanone]	78 nM
O=C(c1ccc(C#Cc2ccccc2)cc1)N1CCC(NCC2CC2)CC1 [(4-(cyclopropylmethylamino)piperidin-1-yl)(4-(phenylethynyl)phenyl)methanone]	2790 nM
CCCC(C)NC1CCN(C(=O)c2ccc(C#Cc3ccccc3)cc2)CC1 (stereo not drawn) [(4-(pentan-2-ylamino)piperidin-1-yl)(4-(phenylethynyl)phenyl)methanone]	59.5 nM
O=C(c1ccc(C#Cc2ccccc2)cc1)N1CCC(N2CCN(c3ccncc3)CC2)CC1 [(4-(phenylethynyl)phenyl)(4-(4-(pyridin-4-yl)piperazin-1-yl)piperidin-1-yl)methanone]	113 nM
O=C(c1ccc(C#Cc2ccccc2)cc1)N1CCN(c2ccccn2)CC1 [(4-(phenylethynyl)phenyl)(4-(pyridin-2-yl)piperazin-1-yl)methanone]	2920 nM
O=C(c1ccc(C#Cc2ccccc2)cc1)N1CCN(c2ccncc2)CC1 [(4-(phenylethynyl)phenyl)(4-(pyridin-4-yl)piperazin-1-yl)methanone]	3680 nM
O=C(c1ccc(C#Cc2ccccc2)cc1)N1CCC(N2CCCC2)CC1 [(4-(phenylethynyl)phenyl)(4-(pyrrolidin-1-yl)piperidin-1-yl)methanone]	3730 nM
O=C(c1ccc(C#Cc2ccccc2)cc1)N1CCN(c2ccccc2)CC1 [(4-(phenylethynyl)phenyl)(4-phenylpiperazin-1-yl)methanone]	2060 nM
O=C(c1ccc(C#Cc2ccccc2)cc1)N1CCNCC1 [(4-(phenylethynyl)phenyl)(piperazin-1-yl)methanone]	4790 nM
O=C(c1ccc(C#Cc2ccccc2)cc1)N1CCC(O)(c2ccccc2)CC1 [(4-hydroxy-4-phenylpiperidin-1-yl)(4-(phenylethynyl)phenyl)methanone]	3660 nM
CC(C)N1CCN(C(=O)c2ccc(C#Cc3ccccc3)cc2)CC1 [(4-isopropylpiperazin-1-yl)(4-(phenylethynyl)phenyl)methanone]	1190 nM
CN1CCN(C(=O)c2ccc(C#Cc3ccccc3)cc2)CC1 [(4-methylpiperazin-1-yl)(4-(phenylethynyl)phenyl)methanone]	166 nM
O=C(c1ccc(/C=C/c2ccccc2)cc1)N1CCC(O)CC1 [(E)-(4-hydroxypiperidin-1-yl)(4-styrylphenyl)methanone]	1970 nM
C[C@@H](CNC(=O)c1ccc(C#Cc2ccccc2)cc1)c1ccccc1 [(R)-4-(phenylethynyl)-N-(2-phenylpropyl)benzamide]	34.9 nM
C[C@H](NC1CCN(C(=O)c2ccc(C#Cc3ccccc3)cc2)CC1)C1CCCCC1 [(S)-(4-(1-cyclohexylethylamino)piperidin-1-yl)(4-(phenylethynyl)phenyl)methanone]	129 nM
CCN1CCC[C@H]1CNC(=O)c1ccc(C#Cc2ccccc2)cc1 [(S)-N-((1-ethylpyrrolidin-2-yl)methyl)-4-(phenylethynyl)benzamide]	1030 nM
O=C(c1ccc(C#Cc2ccccc2)cc1)N1CCC2CCCCC2C1 (stereo not drawn) [(octahydroisoquinolin-2(1H)-yl)(4-(phenylethynyl)phenyl)methanone]	593 nM
